Measurements reported in ChEMBL document CHEMBL3098018, “Synthesis of licochalcone analogues with increased anti-inflammatory activity” (Bioorg Med Chem Lett, 2014).

Experiments:
[1] = Antiinflammatory activity in RBL2H3 cells assessed as inhibition of degranulation; format: functional, cell-based; details: Rattus norvegicus, RBL-2H3
RAW264.7 [2] = assay: Antiinflammatory activity in mouse RAW264.7 cells assessed as inhibition of LPS-stimulated nitric oxide production at 2 uM after 18 hrs by Griess assay relative to control; format: functional; details: RAW264.7, 18 h
RAW264.7 [3] = assay: Antiinflammatory activity in mouse RAW264.7 cells assessed as inhibition of LPS-stimulated nitric oxide production at 20 uM after 18 hrs by Griess assay relative to control; format: functional; details: RAW264.7, 18 h
RAW264.7 [4] = assay: Antiinflammatory activity in mouse RAW264.7 cells assessed as inhibition of LPS-stimulated nitric oxide production after 18 hrs by Griess assay; format: functional, cell-based; details: RAW264.7, 18 h
RAW264.7 [5] = assay: Cytotoxicity against mouse RAW264.7 cells assessed as cell viability at 20 uM after 24 hrs by MTS assay; format: cell-based; details: raw264.7, 24 h
RAW264.7 [6] = assay: Cytotoxicity against mouse RAW264.7 cells assessed as cell viability at 20 uM after 24 hrs by MTS assay; details: raw264.7, 24 h

| IC50 [1] | IC50 (RAW264.7 [4]) | SMILES | inhibition at 2 µM (RAW264.7 [2]) | inhibition at 20 µM (RAW264.7 [3]) | Activity (RAW264.7 [5]) | Activity (RAW264.7 [6]) |
| --- | --- | --- | --- | --- | --- | --- |
| 24 µM | – | COc1c(/C=C/C(=O)c2ccc(O)cc2)ccc(O)c1CC=C(C)C | – | – | – | – |
| > 30 µM | 9.94 µM | COc1c(/C=C/C(=O)c2ccc(O)cc2)ccc(O)c1O | 17.2% | 69.6% | Non-toxic | – |
| – | 4.95 µM | C=C(C)C(C)c1cc(C(=O)/C=C/c2ccc(O)c(O)c2OC)ccc1O (stereo not drawn) | 56.5% | 94.3% | Toxic | Toxic |
| – | 4.72 µM | COc1c(/C=C/C(=O)c2ccc(O)cc2O)ccc(O)c1O | 71.1% | 96.5% | Non-toxic | – |
| – | 10.1 µM | COc1c(/C=C/C(=O)c2ccc(O)c(O)c2)ccc(O)c1O | -6% | 92.5% | Non-toxic | – |
| – | 2.37 µM | C=CC(C)(C)c1cc(C(=O)/C=C/c2ccc(O)c(O)c2OC)ccc1O | 75.9% | 96.1% | Toxic | Toxic |
| > 30 µM | – | COc1cc(O)ccc1/C=C/C(=O)c1ccc(O)cc1 [ECHINATIN] | – | – | – | – |
| > 30 µM | – | O=C(/C=C/c1ccc(O)cc1)c1ccc(O)cc1O [ISOLIQUIRITIGENIN] | – | – | – | – |
| 17 µM | – | C=CC(C)(C)c1cc(/C=C/C(=O)c2ccc(O)cc2)c(OC)cc1O [LICOAGROCHACONE A] | – | – | – | – |
| 21 µM | 4.85 µM | COc1c(/C=C/C(=O)c2ccc(O)c(CC=C(C)C)c2)ccc(O)c1O [LICOCHALCONE D] | 57.8% | 95.4% | Toxic | Toxic |
